Test system: IRE1-XBP1s (HEK293 T-REx cells stably expressing the XBP1-RLuc splicing reporter)
Assay: IRE1-XBP1s activation Assay (XBP1-RLuc splicing reporter, luminescence relative to thapsigargin, with or without IRE1 inhibitor 4μ8C)
Assay type: cell-based
Conditions: 18 h, compound 10 μM, luminescence as percentage signal relative to thapsigargin (Tg) (500 nM, 18 h)
Protocol: IRE1-XBP1s activation Assay: HEK293 T-REx cells stably expressing the XBP1-RLuc splicing reporter were treated with an IRE1-XBP1s activator provided herein (10 μM) in the presence or absence of the IRE1 active site inhibitor 4μ8C (32 μM) for 18 h. Luminescence was shown as the percentage signal relative to thapsigargin (Tg) (500 nM, 18 h).

Compound	activation at 10 µM
Cc1ccc(O[C@H]2CCCN(C(=O)Cn3cc(NC(=O)CCNc4nccc(F)n4)cn3)C2)cc1 [Compound 136]	< 30%
Cc1ccc(O[C@H]2CCCN(C(=O)Cn3cc(NC(=O)[C@H]4CNc5ccccc5O4)cn3)C2)cc1 [Compound 122]	< 30%
Cc1ccc(O[C@H]2CCCN(C(=O)Cn3cc(NC(=O)CCOc4c(F)ccnc4C(C)C)cn3)C2)cc1 [Compound 159, (S)-3-((4-fluoro-2-isopropylpyridine-3-yl)oxy)-N-(1-(2-oxo-2-(3-(p-tolyloxy)piperidin-1-yl)ethyl)-1H-pyrazol-4-yl)propanamide]	≥ 50%
Cc1ccc(OCCN(C)C(=O)Cn2cc(NC(=O)C3COc4c(F)cccc4O3)cn2)cc1 (stereo not drawn) [Compound 129]	≥ 50%
Cc1ccc(OC2(C)CCCN(C(=O)Cn3cc(NC(=O)CCOc4ccccc4F)cn3)C2)c(N)c1 (stereo not drawn) [Compound 69, N-(1-(2-(3-(2-amino-4-methylphenoxy)-3-methylpiperidin-1-yl)-2-oxoethyl)-1H-pyrazol-4-yl)-3-(2-fluorophenoxy)propanamide]	< 30%
Cc1ccc(OC2CCCN(C(=O)Cn3cc(NC(=O)CCOc4ccc(F)cc4C)cn3)C2)cc1 (stereo not drawn) [Compound 98]	≥ 50%
Cc1ccc(OC2CCC3(C2)CN(C(=O)Cn2cc(NC(=O)CCNc4ccnc(F)n4)cn2)C3)cc1 (stereo not drawn) [Compound 175]	< 30%
Cc1cccc(OCCC(=O)Nc2cnn(CC(=O)N(C)c3ccccc3Oc3ccccc3)c2)c1 [Compound 43]	< 30%
Cc1ccc(O[C@H]2CCCN(C(=O)Cn3cc(NC(=O)CCOc4ncncc4N)cn3)C2)cc1 [Compound 164, (S)-3-((5-aminopyrimidin-4-yl)oxy)-N-(1-(2-oxo-2-(3-(p-tolyloxy)piperidin-1-yl)ethyl)-1H-pyrazol-4-yl)propanamide]	≥ 50%
O=C(Nc1cnn(CC(=O)N2CCC[C@H](Oc3ccc(C(F)(F)F)cn3)C2)c1)C1CC(Oc2ccncc2)C1 (stereo partly drawn) [Compound 108]	< 30%
Cc1ccc(OC2CCCN(C(=O)Cn3cc(NC(=O)CCOc4ccccc4C)cn3)C2)cc1 (stereo not drawn) [Compound 36]	≥ 50%
Cc1ccc(OCCN(C)C(=O)Cn2cc(NC(=O)OC3CCCNC3)cn2)cc1 (stereo not drawn) [Compound 206]	< 30%
Cc1ccc(O[C@H]2CCCN(C(=O)Cn3cc(NC(=O)CCOc4c(Br)cncc4[N+](=O)[O-])cn3)C2)cc1 [Compound 165]	≥ 50%
Cc1ccc(OCCN(C)C(=O)Cn2cc(NC(=O)C3CCC(Oc4cccnc4)CC3)cn2)cc1 (stereo not drawn) [Compound 103]	< 30%
O=C(CCNc1ccnc(F)n1)Nc1cnn(CC(=O)N2CCC[C@@H](Oc3ccc(C(F)F)cc3)C2)c1 [Compound 187]	< 30%
